# Test results as given in US4421747A, “Inflammation-preventing pharmaceutical composition of oral administration” (A. Nattermann & Cie. GmbH, priority 1981, dated 1983).
# Like-named read-outs stand apart in the source and are kept apart here.
# Legend:
# bleeding stomach ulcer = assay: Ulcer development (bleeding stomach ulcer provoked by oral application, mean ulcer factor); type: in vivo, Wistar-rats; settings: for ED50: Rattus norvegicus, read-out: oral ED50
# Description: The development of the ulcer was determined in accordance with
# L. Mariani, "Eur. J. Toxicol.
# R. Menguy & L. Desbaillets, "Proc. Soc. exp.
# Ten male and ten female Wistar-rats (120 to 150 grams, in weight) which have not fed for 16 hours, were used for these tests. The bleeding stomach ulcer was provoked by oral application of the active substance. After 3.5 hours, the animals are killed and the stomach extracted, opened along the wide curvature and stretched onto a "Styropor" plate. The mean ulcer factor of the test and of the control group are determined. The variation is weighted in percentages as prevention of the ulcer formation.
# rat paw oedema = assay: rat-paw-oedema test (carragenin); type: in vivo; settings: for ED50: 3 h, read-out: oral ED50; for Prevention of Oedema: Table VII, 12 animals; for Effectiveness applied to Rat Paw Oedema: Table VIII, Dosage 10.0 mg/kg KGW, 12 Animals, prevention of oedema in percentages
# Description: On one hind paw of each rat (weight 200 to 250 grams) an oedema was caused to develop by the "subplantane" application of carragenin (0.5% in a 0.9% NaCl solution) in the amount of 0.1 ml solution per paw.
# After the application of the test substance, its volume not to exceed 10 ml per kg of body weight, the volume of the paw is determined in an overflow ("Ueberlauf"). After three hours the final value is ascertained. The test is carried out for every dosage by using 10 test and 10 control animals of one sex and repeated with the identical number of animals of the other sex. For the purpose of evaluation, the prevention of the oedema is expressed in percentages relative to the control group.
# [1] = reference substances, rat-paw-oedema test, oral
# [2] = Table V, oral, Dosage One cc per mg/kg of Body Weight (KGW), by proportion Indometacine:Phospholipon 100
structure (smiles),measurement,setting,value
"CC(=O)Oc1ccccc1C(=O)O [Acetyl-Salicylic Acid, acetyl-salicylic acid]",Ulcer Index,"bleeding stomach ulcer; Table I, oral, 200 mg/kg KGW, mixture molar ratio Acetyl-Salicylic Acid:Phospholipon 100 = 2:1, 3.5 h, n=10",1.20 ± 0.20
same,Incidence of Ulcers,"bleeding stomach ulcer; Table I, oral, 200 mg/kg KGW, without resp. with p^+ (Phospholipon 100, 2:1)",70%
same,Ulcer Index,"bleeding stomach ulcer; Table I, oral, 400 mg/kg KGW, mixture molar ratio Acetyl-Salicylic Acid:Phospholipon 100 = 2:1, 3.5 h, n=10",1.10 ± 0.50
same,Incidence of Ulcers,"bleeding stomach ulcer; Table I, oral, 400 mg/kg KGW, without resp. with p^+ (Phospholipon 100, 2:1)",50%
same,Ulcer Index,"bleeding stomach ulcer; Table I, oral, 800 mg/kg KGW, mixture molar ratio Acetyl-Salicylic Acid:Phospholipon 100 = 2:1, 3.5 h, n=10",1.20 ± 0.20
same,Incidence of Ulcers,"bleeding stomach ulcer; Table I, oral, 800 mg/kg KGW, without resp. with p^+ (Phospholipon 100, 2:1)",80%
CC(=O)OCC(=O)[C@@]1(O)CC[C@H]2[C@@H]3CCC4=CC(=O)CC[C@]4(C)[C@H]3[C@@H](O)C[C@@]21C [Hydrocortisoneacetate],ED50,rat paw oedema; [1],19 mg/kg
"CC(C)Cc1ccc(C(C)C(=O)O)cc1 (stereo not shown) [Ibuprofen, 2-(4-isobutylphenyl)-propinic acid]",Incidence of Ulcers,"bleeding stomach ulcer; Table VI, oral, 5 mg/kg KGW, one value printed for without and with p^+ (Phospholipon 100, 1:1)",20%
same,Incidence of Ulcers,"bleeding stomach ulcer; Table VI, oral, 10 mg/kg KGW, without resp. with p^+ (Phospholipon 100, 1:1)",20%
same,Incidence of Ulcers,"bleeding stomach ulcer; Table VI, oral, 20 mg/kg KGW, without resp. with p^+ (Phospholipon 100, 1:1)",40%
same,Incidence of Ulcers,"bleeding stomach ulcer; Table VI, oral, 30 mg/kg KGW, without resp. with p^+ (Phospholipon 100, 1:1)",50%
same,Ulcer Index,"bleeding stomach ulcer; Table VI, rat, oral, 5 mg/kg KGW, mixture molar ratio Ibuprofen:Phospholipon 100 = 1:1, 3.5 h, n=10",0.20 ± 0.13
same,Ulcer Index,"bleeding stomach ulcer; Table VI, rat, oral, 10 mg/kg KGW, mixture molar ratio Ibuprofen:Phospholipon 100 = 1:1, 3.5 h, n=10",0.30 ± 0.15
same,Ulcer Index,"bleeding stomach ulcer; Table VI, rat, oral, 20 mg/kg KGW, mixture molar ratio Ibuprofen:Phospholipon 100 = 1:1, 3.5 h, n=10",0.50 ± 0.22
same,Ulcer Index,"bleeding stomach ulcer; Table VI, rat, oral, 30 mg/kg KGW, mixture molar ratio Ibuprofen:Phospholipon 100 = 1:1, 3.5 h, n=10",0.71 ± 0.30
COc1ccc2c(c1)c(CC(=O)O)c(C)n2C(=O)c1ccc(Cl)cc1 [Indometacine],Ulcer Index,"bleeding stomach ulcer; Table III, oral, 5 mg/kg KGW, mixture molar ratio Indometacine:Phospholipon 100 = 2:1, 3.5 h, n=10",1.20 ± 0.30
same,Incidence of Ulcers,"bleeding stomach ulcer; Table III, oral, 5 mg/kg KGW, without resp. with p^+ (Phospholipon 100, 2:1)",70%
same,Ulcer Index,"bleeding stomach ulcer; Table III, oral, 10 mg/kg KGW, mixture molar ratio Indometacine:Phospholipon 100 = 2:1, 3.5 h, n=10",1.90 ± 0.90
same,Incidence of Ulcers,"bleeding stomach ulcer; Table III, oral, 10 mg/kg KGW, without resp. with p^+ (Phospholipon 100, 2:1)",90%
same,Ulcer Index,"bleeding stomach ulcer; Table III, oral, 20 mg/kg KGW, mixture molar ratio Indometacine:Phospholipon 100 = 2:1, 3.5 h, n=10",1.50 ± 0.40
same,Incidence of Ulcers,"bleeding stomach ulcer; Table III, oral, 20 mg/kg KGW, without resp. with p^+ (Phospholipon 100, 2:1)",100%
same,Incidence of Ulcers,"bleeding stomach ulcer; Table IV, oral, 5 mg/kg KGW, without resp. with p^+ (Phospholipon 45, 1:2)",80%
same,Incidence of Ulcers,"bleeding stomach ulcer; Table IV, oral, 10 mg/kg KGW, one value printed for without and with p^+ (Phospholipon 45, 1:2)",90%
same,Incidence of Ulcers,"bleeding stomach ulcer; Table IV, oral, 20 mg/kg KGW, one value printed for without and with p^+ (Phospholipon 45, 1:2)",100%
same,Incidence of Ulcers,"bleeding stomach ulcer; Table IV, oral, 30 mg/kg KGW, without resp. with p^+ (Phospholipon 45, 1:2)",80%
same,Ulcer Index,"bleeding stomach ulcer; Table IV, rat, oral, 5 mg/kg KGW, mixture molar ratio Indometacine:Phospholipon 45 = 1:2, 3.5 h, n=10",2.10 ± 0.36
same,Ulcer Index,"bleeding stomach ulcer; Table IV, rat, oral, 10 mg/kg KGW, mixture molar ratio Indometacine:Phospholipon 45 = 1:2, 3.5 h, n=10",2.20 ± 0.42
same,Ulcer Index,"bleeding stomach ulcer; Table IV, rat, oral, 20 mg/kg KGW, mixture molar ratio Indometacine:Phospholipon 45 = 1:2, 3.5 h, n=10",2.30 ± 0.47
same,Ulcer Index,"bleeding stomach ulcer; Table IV, rat, oral, 30 mg/kg KGW, mixture molar ratio Indometacine:Phospholipon 45 = 1:2, 3.5 h, n=10",2.70 ± 0.30
same,Ulcer Index,bleeding stomach ulcer; [2],2.60 ± 0.22
same,Variation of Mean Ulcer Factor: Indometacine With p^+ Versus Without p^+,bleeding stomach ulcer; [2],0%
same,ED50,"rat paw oedema; Rattus norvegicus, po",7.24 mg/kg
same,Prevention of Oedema,"rat paw oedema; Indometacine 3.16 mg/kg p.o., mixture with Phospholipon 100 7.1 mg/kg p.o.",-47.3%
same,Prevention of Oedema,"rat paw oedema; Indometacine 10 mg/kg p.o., mixture with Phospholipon 100 22.4 mg/kg p.o.",-37.8%
same,Effectiveness applied to Rat Paw Oedema,rat paw oedema; 3 hours elapsed after application,32
same,Effectiveness applied to Rat Paw Oedema,rat paw oedema; 4 hours elapsed after application,40
same,Effectiveness applied to Rat Paw Oedema,rat paw oedema; 5 hours elapsed after application,28
same,Effectiveness applied to Rat Paw Oedema,rat paw oedema; 6 hours elapsed after application,27
"CCCCC1C(=O)N(c2ccccc2)N(c2ccccc2)C1=O [Phenylbutazone, 4-butyl-1,2-diphenylpyrazolidine-3,5-dion]",Ulcer Index,"bleeding stomach ulcer; Table II, oral, 25 mg/kg KGW, mixture molar ratio Phenylbutazone:Phospholipon 100 = 2:1, 3.5 h, n=10",0.70 ± 0.05
same,Incidence of Ulcers,"bleeding stomach ulcer; Table II, oral, 25 mg/kg KGW, without resp. with p^+ (Phospholipon 100, 2:1)",70%
same,Ulcer Index,"bleeding stomach ulcer; Table II, oral, 50 mg/kg KGW, mixture molar ratio Phenylbutazone:Phospholipon 100 = 2:1, 3.5 h, n=10",1.60 ± 0.42
same,Incidence of Ulcers,"bleeding stomach ulcer; Table II, oral, 50 mg/kg KGW, without resp. with p^+ (Phospholipon 100, 2:1)",60%
same,Ulcer Index,"bleeding stomach ulcer; Table II, oral, 100 mg/kg KGW, mixture molar ratio Phenylbutazone:Phospholipon 100 = 2:1, 3.5 h, n=10",1.80 ± 0.84
same,Incidence of Ulcers,"bleeding stomach ulcer; Table II, oral, 100 mg/kg KGW, without resp. with p^+ (Phospholipon 100, 2:1)",100%
same,Ulcer Index,"bleeding stomach ulcer; Table II, oral, 200 mg/kg KGW, mixture molar ratio Phenylbutazone:Phospholipon 100 = 2:1, 3.5 h, n=10",1.90 ± 0.66
same,Incidence of Ulcers,"bleeding stomach ulcer; Table II, oral, 200 mg/kg KGW, one value printed for without and with p^+ (Phospholipon 100, 2:1)",80%
same,ED50,rat paw oedema; [1],100 mg/kg
CN1C2CCC1CC(OC(=O)C(CO)c1ccccc1)C2 (stereo not shown) [atropinesulphate],ED50,bleeding stomach ulcer; po,17.1 mg/kg
CN(C)CCCN1c2ccccc2Sc2ccc(Cl)cc21 [chloropromazine],ED50,"bleeding stomach ulcer; reference substances, ulcer test, oral",105 mg/kg
